{"source": "patent US12391685B2", "about": "“Inhibitors of RNA-guided nuclease target binding and uses thereof” (THE BROAD INSTITUTE, INC., priority 2018, dated 2025)", "key": {"SpCas9": {"molecular_target": "SpCas9 (Streptococcus pyogenes serotype M1, UniProt Q99ZW2)", "sequence (Q99ZW2 whole entry)": "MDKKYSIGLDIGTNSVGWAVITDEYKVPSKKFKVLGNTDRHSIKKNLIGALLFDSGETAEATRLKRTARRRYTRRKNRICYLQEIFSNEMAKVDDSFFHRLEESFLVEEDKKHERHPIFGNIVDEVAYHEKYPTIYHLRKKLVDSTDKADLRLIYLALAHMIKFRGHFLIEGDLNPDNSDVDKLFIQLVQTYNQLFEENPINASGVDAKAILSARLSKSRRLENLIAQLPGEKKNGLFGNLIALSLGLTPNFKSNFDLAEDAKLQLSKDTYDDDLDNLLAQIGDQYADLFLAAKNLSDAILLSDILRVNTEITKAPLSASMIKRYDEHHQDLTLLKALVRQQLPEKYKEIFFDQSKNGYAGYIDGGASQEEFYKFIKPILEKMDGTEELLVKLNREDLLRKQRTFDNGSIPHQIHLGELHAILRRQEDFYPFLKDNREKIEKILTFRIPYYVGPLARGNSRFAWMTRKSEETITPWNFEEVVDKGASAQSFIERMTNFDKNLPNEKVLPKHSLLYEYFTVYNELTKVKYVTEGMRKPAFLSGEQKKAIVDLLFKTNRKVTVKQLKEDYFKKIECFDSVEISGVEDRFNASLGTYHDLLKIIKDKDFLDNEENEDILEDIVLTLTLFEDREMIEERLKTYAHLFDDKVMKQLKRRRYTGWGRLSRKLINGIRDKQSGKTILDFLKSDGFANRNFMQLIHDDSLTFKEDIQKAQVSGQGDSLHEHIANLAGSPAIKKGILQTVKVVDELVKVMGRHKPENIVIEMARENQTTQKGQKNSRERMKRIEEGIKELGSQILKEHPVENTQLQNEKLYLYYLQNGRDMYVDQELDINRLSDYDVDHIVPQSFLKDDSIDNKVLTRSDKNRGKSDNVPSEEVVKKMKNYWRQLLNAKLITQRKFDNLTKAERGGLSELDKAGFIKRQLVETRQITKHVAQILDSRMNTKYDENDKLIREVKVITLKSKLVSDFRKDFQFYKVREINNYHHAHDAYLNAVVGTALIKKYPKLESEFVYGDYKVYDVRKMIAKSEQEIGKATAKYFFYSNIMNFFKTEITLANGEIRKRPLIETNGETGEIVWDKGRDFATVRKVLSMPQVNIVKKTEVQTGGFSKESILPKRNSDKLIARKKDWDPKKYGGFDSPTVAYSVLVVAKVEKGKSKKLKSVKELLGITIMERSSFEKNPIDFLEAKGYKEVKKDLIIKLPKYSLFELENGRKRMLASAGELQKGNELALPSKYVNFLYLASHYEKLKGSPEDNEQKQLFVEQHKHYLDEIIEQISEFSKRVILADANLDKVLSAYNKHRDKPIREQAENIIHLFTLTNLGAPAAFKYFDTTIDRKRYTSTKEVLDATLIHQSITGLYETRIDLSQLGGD", "experiment": "eGFP-disruption assay in U2OS.eGFP.PEST cells", "assay_type": "cell-based, S. pyogenes", "parameters": "host or cells: U2OS.eGFP.PEST", "settings": "for inhibition of SpCas9 in the eGFP-disruption assay (in words) / inhibition at 15 µM: U2OS.eGFP.PEST cells; for inhibition at 15 µM: screen of structural analogs of BRD7087, 15 μM compound", "in_short": "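U2OS.eGFP-PEST cells were nucleofected with SpCas9 plus eGFP Site #1 sgRNA, as plasmids or as preformed RNP (20 pmol). Compound or DMSO was present for 24 h post-transfection. Fixed cells were imaged with a nuclear counterstain, and the % GFP-negative cell population was quantified by automated microscopy.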"}, "[1]": {"experiment": "Aggregation by dynamic light scattering in PBS", "settings": "40-100 μM tested"}, "[2]": {"molecular_target": "T1, dCas9-based transcription-activation complex (Streptococcus pyogenes serotype M1, UniProt Q99ZW2, D10A, form not given)", "T1 construct": "\"dSpCas9|Feng Zhang lab|NA\"; The MS2-p65-HSF1(-GFP) effector is a separate chain recruited through MS2 aptamers in the sgRNA", "T1 sequence (Q99ZW2 whole entry, form open, one chain of several, change not shown)": "as the sequence (Q99ZW2 whole entry) above", "experiment": "dCas9-based transcription activation of HBG1 in HEK293FT cells (RT-qPCR)", "assay_type": "cell-based, S. pyogenes", "settings": "20 μM", "method": "Transcription activation experiments and quantitative RT-PCR analyses. HEK293FT cells were maintained in high glucose DMEM with glutamax (Life Technologies) and supplemented with 10% FBS (Life Technologies), 1% penicillin-streptomycin (Life Technologies) and 1 mM sodium pyruvate (Life Technologies). For transcription activation experiments, 20,000 cells/well were plated in a poly D-lysine-coated 96-well plate. The cells were transiently transfected with a 1:1:1 mass ratio of the dCas9 plasmid, MS2-P65-HSF1 effector plasmid and the sgRNA plasmid targeting the HBG1 gene or an RFP control plasmid. A total of 0.3 μg plasmid DNA was transfected using Lipofectamine 2000 (Life Technologies) according to manufacturer's protocol. Immediately after transfection, the cells were treated with an appropriate dose of the small-molecule inhibitors. A DMSO solution of compound (20 mM) was resuspended in the 10% FBS containing growth media and thoroughly mixedbefore adding to the cells. After 48 h the cells were lysed and 5 μL of the cell lysate was used to perform reverse transcription using the RevertAid RT Reverse Transcription Kit (Thermo Fischer Scientific) as described by Joung J. et al. qPCR reactions were performed to quantify RNA expression using the TaqMan probes (Life Technologies, HBG1/HBG2: Hs00361131_g1, ACTB: Hs01060665_g1) and TaqMan Fast Advanced Master Mix (Life Technologies) in 5 μL multiplexed reactions and 384-well format using the LightCycler 480 Instrument II (Roche). For each sample, four technical replicates were performed. Data were analyzed using the LightCycler 480 software (Roche) by the ΔΔCt method: Ct values for the gene of interest (HBG1) were normalized to Ct values for the housekeeping gene (ACTB), and fold-changes in the expression level of gene of interest were normalized to RFP-transfected control. The data is reported as mean±S.E.M. for technical replicates."}, "SpCas9:gRNA complex": {"molecular_target": "T2, SpCas9:gRNA complex (Streptococcus pyogenes serotype M1, UniProt Q99ZW2)", "T2 construct": "made in house; host or cells: E. coli Rosetta (DE3)", "T2 sequence (Q99ZW2 whole entry, one chain of several)": "as the sequence (Q99ZW2 whole entry) above", "experiment": "19F NMR binding assay", "parameters": "species or system S. pyogenes", "settings": "for receptor occupancy at 50 µM: read-out: Fractional Occupancy", "method": "Table 8 NMR parameters used for analysis of BRD7087 binding to SpCas9:gRNA complex. The binding study of BRD7087 to SpCas9:gRNA complex was analyzed based on the method described by Shortridge et. al. The linewidth (LW) increases with increasing SpCas9:gRNA concentration, as expected. Peak intensity values were used to measure the fractional occupancy using the equation Fractional Occupancy=(1−Ibound/I0), where I0 is the intensity of the peak with no protein in the sample. The peak area remains relatively constant, as expected for a fixed concentration of ligand.\nNMR binding assay. All samples were prepared with 50 μM BRD7087 in 20 mM Tris buffer (pH 7.4) with varying concentrations of SpCas9:gRNA in a 3 mm NMR tube. Experiments were performed on a 600 MHZ (^19F: 564.71 MHZ) Bruker Avance III NMR spectrometer equipped with a 5 mm QCI-F CryoProbe and a SampleJet for automated sample handling. To acquire spectra, a standard one-pulse ^19F experiment with WALTZ-16 for proton decoupling during acquisition, a 5 second recycle delay, and 256 scans were used. All spectra were recorded at 280 K. NMR data were apodized with a 1 Hz exponential function prior to Fourier transformation. All spectra were baseline corrected, and peak widths and intensities were extracted using the automated line-fitting feature provided with the MNova software package."}, "[3]": {"settings": "50 μM BRD7087, 0.75 μM SpCas9:gRNA"}, "[4]": {"settings": "50 μM BRD7087, 1.0 μM SpCas9:gRNA"}, "[5]": {"settings": "50 μM BRD7087, 1.25 μM SpCas9:gRNA"}, "[6]": {"settings": "50 μM BRD7087, 1.5 μM SpCas9:gRNA"}, "[7]": {"settings": "50 μM BRD7087, 1.75 μM SpCas9:gRNA"}}, "note": "Entries after “also recorded” stand apart in the source; their conditions may differ. Where two headings read alike, the source gives them in different places.", "data": [{"smiles": "Cc1ccc(S(=O)(=O)N2CC[C@@H]3[C@H](CO)Nc4ccc(-c5ccccc5F)cc4[C@@H]32)cc1", "note": "[BRD0539, ((3aR,4R,9bR)-8-(2-fluorophenyl)-1-tosyl-2,3,3a,4,5,9b-hexahydro-1H-pyrrolo[3,2-c]quinolin-4-yl) methanol]", "values": [{"measurement": "EC50", "setting": "SpCas9; EC50, dose-dependent inhibition of SpCas9, U2OS.eGFP.PEST cells, 24 h, tested from 2.8-17.3 μM", "value": 11.5, "unit": "µM"}, {"measurement": "inhibition of SpCas9 in the eGFP-disruption assay (in words)", "setting": "SpCas9", "value": "dose-dependent inhibitory activity; also recorded: able to inhibit"}, {"measurement": "improvement in potency over BRD7087", "setting": "SpCas9; eGFP-disruption assay", "value": 1.8, "unit": "fold"}, {"measurement": "EC50", "setting": "SpCas9; eGFP-disruption assay, read-out: apparent EC50", "value": 11, "unit": "µM"}, {"measurement": "inhibition at 15 µM", "setting": "SpCas9; 24 h, read-out: Average Inhibition activity", "value": 64.2, "unit": "%"}, {"measurement": "inhibition at 15 µM", "setting": "SpCas9; 24 h, read-out: Inhibition activity Rep 1", "value": 61, "unit": "%"}, {"measurement": "inhibition at 15 µM", "setting": "SpCas9; 24 h, read-out: Inhibition activity Rep 2", "value": 67.4, "unit": "%"}, {"measurement": "potency among the four stereoisomers", "setting": "SpCas9; tested from 2.5-15 μM, 24 h", "value": "most potent"}]}, {"smiles": "OC[C@H]1Nc2ccc(-c3cccc(F)c3)cc2[C@H]2[C@@H]1CCN2Cc1ccncc1", "note": "[BRD7087, ((3aR,4S,9bR)-8-(3-Fluorophenyl)-1-(pyridin-4-ylmethyl)-2,3,3a,4,5,9b-hexahydro-1H-pyrrolo[3,2-c]quinolin-4-yl) methanol]", "values": [{"measurement": "inhibition of SpCas9 in the eGFP-disruption assay (in words)", "setting": "SpCas9", "value": "dose-dependent inhibition"}, {"measurement": "inhibition at 10 µM", "setting": "SpCas9; read-out: inhibition of SpCas9", "value": "~44", "unit": "%"}, {"measurement": "concentration beyond which aggregates form", "setting": "[1]", "value": "> 80", "unit": "µM"}, {"measurement": "no detectable aggregation up to", "setting": "[1]", "value": "~60", "unit": "µM"}, {"measurement": "inhibition of transcriptional activation", "setting": "[2]", "value": "~60", "unit": "%"}, {"measurement": "LW (linewidth of 19F signal)", "setting": "SpCas9:gRNA complex; [3]", "value": 4.3, "unit": "Hz"}, {"measurement": "receptor occupancy at 50 µM", "setting": "SpCas9:gRNA complex; [3]", "value": 13.1, "unit": "%"}, {"measurement": "LW (linewidth of 19F signal)", "setting": "SpCas9:gRNA complex; [4]", "value": 4.6, "unit": "Hz"}, {"measurement": "receptor occupancy at 50 µM", "setting": "SpCas9:gRNA complex; [4]", "value": 18.2, "unit": "%"}, {"measurement": "LW (linewidth of 19F signal)", "setting": "SpCas9:gRNA complex; [5]", "value": 5.3, "unit": "Hz"}, {"measurement": "receptor occupancy at 50 µM", "setting": "SpCas9:gRNA complex; [5]", "value": 30.4, "unit": "%"}, {"measurement": "LW (linewidth of 19F signal)", "setting": "SpCas9:gRNA complex; [6]", "value": 5.9, "unit": "Hz"}, {"measurement": "receptor occupancy at 50 µM", "setting": "SpCas9:gRNA complex; [6]", "value": 34.4, "unit": "%"}, {"measurement": "LW (linewidth of 19F signal)", "setting": "SpCas9:gRNA complex; [7]", "value": 6.3, "unit": "Hz"}, {"measurement": "receptor occupancy at 50 µM", "setting": "SpCas9:gRNA complex; [7]", "value": 40.1, "unit": "%"}, {"measurement": "binding to SpCas9:gRNA by 19F line broadening (in words)", "setting": "SpCas9:gRNA complex; significant broadening at protein concentrations as low as 0.75 μM", "value": "tight binding"}]}]}
